Source: patent publication US6043254A, “Indolinones having kinase-inhibiting activity” (Boehringer Ingelheim Pharma KG, priority 1998, dated 2000)

Experiments:
cycline D1/CDK4 = biological target: T1, cycline D1/CDK4 (Homo sapiens, UniProt P11802); test: Test 1: inhibition of cycline/CDK enzyme in vitro activity; type: biochemical; settings: GST-tagged pRB substrate; 45 minutes at 30° C.; 1% DMSO
T1 construct: His6; made in house; host or cells: High Five insect cells (BTI-TN-5B1-4), recombinant baculovirus with two promoters
T1 sequence (P11802 whole entry): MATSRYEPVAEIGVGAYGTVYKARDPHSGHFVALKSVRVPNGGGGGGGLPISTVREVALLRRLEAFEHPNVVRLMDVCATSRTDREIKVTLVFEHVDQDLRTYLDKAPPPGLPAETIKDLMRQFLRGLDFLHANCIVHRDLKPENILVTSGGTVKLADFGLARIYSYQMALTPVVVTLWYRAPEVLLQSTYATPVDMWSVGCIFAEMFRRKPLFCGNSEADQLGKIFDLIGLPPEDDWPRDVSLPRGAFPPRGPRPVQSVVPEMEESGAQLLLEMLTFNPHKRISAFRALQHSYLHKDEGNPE
T1 sequence (P24385 whole entry partner): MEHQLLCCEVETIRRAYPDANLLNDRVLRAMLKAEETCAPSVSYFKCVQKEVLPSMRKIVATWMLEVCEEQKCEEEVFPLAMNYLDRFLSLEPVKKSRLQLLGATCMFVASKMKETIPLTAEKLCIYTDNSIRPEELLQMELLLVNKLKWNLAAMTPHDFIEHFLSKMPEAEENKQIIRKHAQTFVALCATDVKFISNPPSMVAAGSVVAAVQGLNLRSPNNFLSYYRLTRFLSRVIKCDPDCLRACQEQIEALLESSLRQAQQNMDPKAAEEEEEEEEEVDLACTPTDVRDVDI
From the text: Inhibition of cycline/CDK Enzyme in vitro Activity
High Five™ insect cells (BTI-TN-5B1-4) which had been infected with a high titre of recombinant baculovirus were used to produce active human cycline/CDK holoenzymes. By using a baculovirus vector which contained two promoters (polyhedrin enhancer promoter, P10 enhancer promoter), GST-tagged cyclines (e.g. cycline D1 or cycline D3) with the corresponding His6 -tagged CDK subunit (e.g. for CDK4 or CDK6) were expressed in the same cell. The active holoenzyme was isolated by affinity chromatography on glutathione sepharose. Recombinant GST-tagged pRB (aa 379-928) was produced in E. coli and purified by affinity chromatography on glutathione sepharose.
The substrates used for the kinase assays depended on the specific kinases. Iistone H1 (Sigma) was used as the substrate for cycline E/CDK2, cycline A/CDK2, cycline B/CDK1 and for v-cycline/CDK6. GST-tagged pRB (aa 379-928) was used as substrate for cycline D1/CDK4, cycline D3/CDK4, cycline D1/CDK6 and for cycline D3/CDK6.
Lysates of the insect cells infected with recombinant baculovirus or recombinant kinases (obtained from the lysates by purification) were incubated together with radiolabelled ATP in the presence of a suitable substrate with various concentrations of the inhibitor in a 1% DMSO solution (dimethyl sulphoxide) for 45 minutes at 30° C. The substrate proteins with associated radioactivity were precipitated with 5% TCA (trichloroacetic acid) in water-repellent PVDF multi-well microtitre plates (Millipore) or with 0.5% phosphoric acid solution on Whatman P81 filters. After the addition of scintillation liquid the radioactivity was measured in a Wallace 1450 Microbeta Liquid Scintillation Counter. For each concentration of the substance double measurements were carried out; IC50 values were calculated for the enzyme inhibition.

[1] = tested on: SK-UT-1B cells (Leimyosarcoma tumour cell line); test: Test 2: inhibition of the proliferation of cultivated human tumour cells (14C-thymidine incorporation); type: cell-based; settings: Skut1B, 48 hours' incubation, then 14C-thymidine for a further 24 hours, read-out: Inhibiting the proliferation of SKUT-1B cells: IC50
Description: Inhibition of the Proliferation of Cultivated Human Tumour Cells
Cells of the Leimyosarcoma tumour cell line SK-UT-1B (obtained from the American Type Culture Collection (ATCC)) were cultivated in Minimum Essential Medium with non-essential amino acids (Gibco), supplemented with sodium pyruvate (1 mmol), glutamine (2 mmol) and 10% foetal calf serum (Gibco) and harvested during the log-growth phase. Then the SK-UT-1B cells were added to Cytostar® multi-well plates (Amersham) at a density of 4000 cells per well and incubated overnight in an incubator. Various concentrations of the compounds (dissolved in DMSO; final concentration: <1%) were added to the cells. After 48 hours' incubation ^14 C-thymidine (Amersham) was added to each well and incubation was continued for a further 24 hours. The quantity of ^14 C-thymidine incorporated into the tumour cells in the presence of the inhibitor and representing the number of cells in the S phase was measured in a Wallace 1450 Microbeta Liquid Scintillation Counter. IC50 values for the inhibition of proliferation (=inhibition of incorporated ^14 C-thymidine) were calculated, correcting for the background radiation. All the measurements were done twice.

[2] = tested on: tumour (SK-UT-1B, or non-small cell lung tumour NCI-H460); test: Test 3: in vivo effects on tumour-bearing nude mice; parameters: species or system nude mice (NMRI nu/nu); settings: 100 mg/kg p.o. once a day for two weeks; male nude mice (n=9); significant, p<0.05
Description: In vivo Effects on Tumour-bearing Nude Mice
10^6 cells [SK-UT-1B, or non-small cell lung tumour NCI-H460 (obtained from ATCC)] in a volume of 0.1 ml were injected subcutaneously into male and/or female nude mice (NMRI nu/nu; 25-35 g; N=10-20); alternatively, small fragments of SK-UT-1B or NCI-H460 cell clumps were implanted subcutaneously. One to three weeks after the injection or implantation a kinase inhibitor was administered daily by oral route for a period of 2 to 4 weeks (by oesophageal tube). The size of the tumour was measured three times a week using a digital sliding gauge. The effect of a kinase inhibitor on the tumour growth was determined as a percentage inhibition compared with a control group treated with placebo.

SMILES	IC50 (cycline D1/CDK4)	IC50 [1]	reduction in the tumour size [2]
O=C1Nc2ccc([N+](=O)[O-])cc2/C1=C(/Nc1ccc(-c2c[nH]cn2)cc1)c1ccccc1 [Example 2.5]	1000 nM	340 nM	around 65%
Cn1ccnc1-c1ccc(N/C(=C2\C(=O)Nc3ccc([N+](=O)[O-])cc32)c2ccccc2)cc1 [Example 3.12, 3-{(Z)-1-[4-(1-methyl-1H-imidazol-2-yl)anilino]-1-phenylmethylidene}-5-nitro-2-indolinone]	–	400 nM	–
O=C1Nc2ccc([N+](=O)[O-])cc2/C1=C(/Nc1ccc(CN2CCCC2)cc1)c1ccccc1 [Example 3.18, 3-{(Z)-1-[4-((pyrrolidin-1-yl)methyl)anilino]-1-phenylmethylidene}-5-nitro-2-indolinone]	–	220 nM	–
O=C1Nc2ccc([N+](=O)[O-])cc2/C1=C(/Nc1ccc(CCN2CCCC2)cc1)c1ccccc1 [Example 4.9, 3-{(Z)-1-[4-(2-(pyrrolidin-1-yl)ethyl)anilino]-1-phenylmethylidene}-5-nitro-2-indolin]	55 nM	–	–
O=C1Nc2ccc([N+](=O)[O-])cc2/C1=C(/Nc1ccc(CN2C(=O)CCC2=O)cc1)c1ccccc1 [Example 4.11, 3{(Z)-1-[4-((2,5-dioxo-pyrrolidin-1-yl)methyl)anilino]-1-phenylmethylidene}-5-nitro-2-indolinone]	–	530 nM	–
O=C1Nc2ccccc2/C1=C(/Nc1ccc(-c2cn3cccnc3n2)cc1)c1ccccc1 [Example 8.3, 3-{(Z)-1-[4-(imidazo[1,2-a]pyrimidin-2-yl)anilino]-1-phenylmethylidene}-2-indolinone]	–	1300 nM	–
O=C1Nc2ccc([N+](=O)[O-])cc2/C1=C(/Nc1ccc2c(c1)CCNC2)c1ccccc1 [Example 14.1, 3-{(Z)-1-[(1,2,3,4-tetrahydro-isoquinolin-6-yl)amino]-1-phenylmethylidene}-5-nitro-2-indolinone]	150 nM	–	–
CC(=O)N1CCc2cc(N/C(=C3\C(=O)Nc4ccc([N+](=O)[O-])cc43)c3ccccc3)ccc2C1 [Example 18.2, 3-{(Z)-1-[(2-acetyl-1,2,3,4-tetrahydro-isoquinolin-6-yl)-amino]-1-phenylmethylidene}-5-nitro-2-indolinone]	1400 nM	–	–
